In BigSolDB 2.1:

CC[C@H](C)[C@H]1O[C@]2(C=C[C@@H]1C)C[C@@H]1C[C@@H](C/C=C(\C)[C@@H](O[C@H]3C[C@H](OC)[C@@H](O[C@H]4C[C@H](OC)[C@@H](O)[C@H](C)O4)[C@H](C)O3)[C@@H](C)/C=C/C=C3\CO[C@@H]4[C@H](O)C(C)=C[C@@H](C(=O)O1)[C@]34O)O2
solubility (mole fraction)
Settings	283.15 K	288.15 K	293.15 K	298.15 K	303.15 K	308.15 K	313.15 K
in acetone	0.00916	0.0104	0.0119	0.0134	0.0151	0.0175	0.0194
in isopropanol	0.00481	0.00589	0.0071	0.00804	0.0096	0.0113	0.0137
